Assay results taken from PubChem BioAssay AID1259408 (Genetic Toxicology Data Bank (GENE-TOX), 2018).
Calls of active or inactive are those of the source. The rule behind the calls is not given here.

Test system: GENE-TOX genotoxicity assays, various organisms and cells
Experiment: GENE-TOX mutagenicity studies
Details: for call: Assay Type: In vivo carcinogenicity studies
[1] = Species/Cell Type: Bacillus subtilis (H17 vs M45), Assay Type: Rec-assay, spot test, DNA effects (bacterial DNA repair), Assay Code: REWT, Evaluation Type: Evaluation A (Pre-1980)
[2] = Species/Cell Type: Escherichia coli WP2 UVRA, Assay Type: Tryptophan reverse gene mutation, Assay Code: WPU-*, Activation: With metabolic activation, Evaluation Type: Evaluation A (Pre-1980)
[3] = Species/Cell Type: Escherichia coli polA (W3119 vs P3478), Assay Type: Rec-assay, DNA effects (bacterial DNA repair), Assay Code: RE1T, Evaluation Type: Evaluation A (Pre-1980)
[4] = Species/Cell Type: Human diploid fibroblasts, Assay Type: Unscheduled DNA synthesis (UDS) in vitro, DNA effects, Assay Code: UDH-, Evaluation Type: Evaluation A (Pre-1980)
[5] = Species/Cell Type: Saccharomyces cerevisiae, Assay Type: Mitotic recombination or gene conversion, Assay Code: YEH-, Evaluation Type: Evaluation A (Pre-1980)
[6] = Species/Cell Type: Salmonella typhimurium (one or more of the five standard strains: TA98, TA100, TA1535, TA1537, and TA1538), Assay Type: Histidine reverse gene mutation, Ames assay, Assay Code: SAL-, Evaluation Type: Evaluation A (Pre-1980)

## CCOC(=O)CC(SP(=S)(OC)OC)C(=O)OCC (stereo unspecified)
[1]
  mutagenic call: no conclusion
Species/Cell Type: Drosophila melanogaster, Assay Type: Sex-linked recessive lethal gene mutation, Assay Code: SRL-, Evaluation Type: Evaluation A (Pre-1980)
  mutagenic call: inactive; negative
[2]
  mutagenic call: inactive; negative
[3]
  mutagenic call: no conclusion
Species/Cell Type: Hordeum vulgare (barley), Assay Type: Chromosome aberrations, Assay Code: HOC+D, Dose Response: With dose response, Evaluation Type: Evaluation A (Pre-1980)
  mutagenic call: active; positive
[4]
  mutagenic call: inactive; negative
Species/Cell Type: Human, Assay Type: Sister-chromatid exchange (SCE) in vitro, Assay Code: SC1+D, Dose Response: With dose response, Evaluation Type: Evaluation A (Pre-1980)
  mutagenic call: active; positive
Species/Cell Type: Human, Assay Type: Sister-chromatid exchange (SCE) in vitro, Assay Code: SC1+D, Dose Response: With dose response, Evaluation Type: Evaluation B (Post-1980)
  mutagenic call: active; positive
Species/Cell Type: Mammalian polychromatic erythrocytes, Assay Type: Micronucleus test, chromosome aberrations, Assay Code: MNT+, Evaluation Type: Evaluation B (Post-1980)
  mutagenic call: active; positive
Species/Cell Type: Nonhuman, Assay Code: CCG-, Evaluation Type: Evaluation A (Pre-1980)
  call: inactive; negative
Species/Cell Type: Nonhuman, Assay Type: Sister-chromatid exchange (SCE) in vitro, Assay Code: SC2+D, Dose Response: With dose response, Evaluation Type: Evaluation B (Post-1980)
  mutagenic call: active; positive
[5]
  mutagenic call: inactive; negative
[6]
  mutagenic call: inactive; negative

## Cc1nc(N(C)C)nc(OC(=O)N(C)C)c1C
Species/Cell Type: Aspergillus nidulans, Assay Type: Aneuploidy, chromosome aberrations, Assay Code: ASN-, Evaluation Type: Evaluation A (Pre-1980)
  mutagenic call: inactive; negative

## Cc1ccc2ccc3c4ccccc4c(C)c4ccc1c2c43
Species/Cell Type: Drosophila melanogaster, Assay Type: Sex-linked recessive lethal gene mutation, Assay Code: SRL+, Evaluation Type: Evaluation A (Pre-1980)
  mutagenic call: active; positive

## CC1CC2OC(/C=C/C=C/C=C/C=C/C=C/C(O)=C3\C(=O)C(C(C)C)N(C)C3=O)C(O)C2O1 (stereo unspecified)
Species/Cell Type: Bacillus subtilis (H17 vs M45), Assay Type: Rec-assay, spot test, DNA effects (bacterial DNA repair), Assay Code: REW-, Evaluation Type: Evaluation A (Pre-1980)
  mutagenic call: inactive; negative

## Cc1ccccc1O
Species/Cell Type: Allium cepa, Assay Type: Chromosome aberrations, Assay Code: ALCT, Evaluation Type: Evaluation A (Pre-1980)
  mutagenic call: no conclusion
Species/Cell Type: Human lymphocytes, Assay Type: Sister-chromatid exchange (SCE) in vitro, Assay Code: SCLT, Evaluation Type: Evaluation B (Post-1980)
  mutagenic call: no conclusion
Species/Cell Type: Human, Assay Type: Sister-chromatid exchange (SCE) in vitro, Assay Code: SC1+, Evaluation Type: Evaluation B (Post-1980)
  mutagenic call: active; positive
Species/Cell Type: Nonhuman, Assay Type: Sister-chromatid exchange (SCE) in vivo, Assay Code: SC3T, Evaluation Type: Evaluation B (Post-1980)
  mutagenic call: no conclusion

## C=CC(=O)c1ccc2c(c1)OCO2
Species/Cell Type: Salmonella typhimurium (one or more of the five standard strains: TA98, TA100, TA1535, TA1537, and TA1538), Assay Type: Histidine reverse gene mutation, Ames assay, Assay Code: SALT, Evaluation Type: Evaluation A (Pre-1980)
  mutagenic call: no conclusion

## COP(=O)(OC)O/C(C)=C/C(=O)OC(C)c1ccccc1 (stereo unspecified)
[1]
  mutagenic call: no conclusion
[2]
  mutagenic call: inactive; negative
[3]
  mutagenic call: no conclusion
[4]
  mutagenic call: inactive; negative
Species/Cell Type: Saccharomyces cerevisiae, Assay Type: Mitotic recombination or gene conversion, Assay Code: YEH+, Evaluation Type: Evaluation A (Pre-1980)
  mutagenic call: active; positive
[6]
  mutagenic call: inactive; negative

## O=[N+]([O-])c1ccc(C=NCCO)o1
Species/Cell Type: Salmonella typhimurium (one or more of the five standard strains: TA98, TA100, TA1535, TA1537, and TA1538), Assay Type: Histidine reverse gene mutation, Ames assay, Assay Code: SAL+, Evaluation Type: Evaluation A (Pre-1980)
  mutagenic call: active; positive

## N=C1C=CC(=C(c2ccc(N)cc2)c2ccc(N)cc2)C=C1
Species/Cell Type: Escherichia coli polA (W3119 vs P3478), Assay Type: Rec-assay, DNA effects (bacterial DNA repair), Assay Code: RE1+, Evaluation Type: Evaluation A (Pre-1980)
  mutagenic call: active; positive
Species/Cell Type: Fischer rat embryo (RLV/1706) cells, Assay Type: Cell transformation, viral enhanced, Assay Code: CTR+, Evaluation Type: Evaluation A (Pre-1980)
  mutagenic call: active; positive
Species/Cell Type: Mouse (BALB/c-3T3) cells, Assay Type: Cell transformation, Assay Code: CTB+D, Dose Response: With dose response, Evaluation Type: Evaluation A (Pre-1980)
  mutagenic call: active; positive
Species/Cell Type: Nonhuman, Assay Code: CCG+L, Evaluation Type: Evaluation A (Pre-1980)
  call: active; positive
[5]
  mutagenic call: inactive; negative
[6]
  mutagenic call: inactive; negative
Species/Cell Type: Salmonella typhimurium, Assay Type: Forward and reverse gene mutation, host-mediated assay, Assay Code: HMA-, Evaluation Type: Evaluation A (Pre-1980)
  mutagenic call: inactive; negative
Species/Cell Type: Syrian hamster embryo (SHE) cells, Assay Type: Cell transformation, clonal assay, Assay Code: CTCT, Evaluation Type: Evaluation A (Pre-1980)
  mutagenic call: no conclusion
